Experimental data from patent US4812583A, “Substituted acyloxyalkylphenylethylene inhibitors of 3-hydroxy-3-methylglutaryl-coa reductase” (American Home Products Corporation, priority 1987, dated 1989).
pIC50: −log10 of the molar value. Like-named read-outs stand apart in the source and are kept apart here.

Assays:
HMG-CoA Reductase = target: T1, HMG-CoA Reductase (Rattus norvegicus, UniProt P51639); experiment: Inhibition of HMG-CoA reductase (rat liver microsomal fraction, [14C] HMG-CoA); type: biochemical; details: rat liver microsomal enzyme, pH 7.5, 37° C., 20 min
T1 construct: the microsomal fraction is isolated by differential ultra centrifugation to obtain the HMG-CoA reductase enzyme; from tissue; host or cells: rat liver, microsomal fraction (cholestyramine-fed rats)
T1 sequence (P51639 1-887): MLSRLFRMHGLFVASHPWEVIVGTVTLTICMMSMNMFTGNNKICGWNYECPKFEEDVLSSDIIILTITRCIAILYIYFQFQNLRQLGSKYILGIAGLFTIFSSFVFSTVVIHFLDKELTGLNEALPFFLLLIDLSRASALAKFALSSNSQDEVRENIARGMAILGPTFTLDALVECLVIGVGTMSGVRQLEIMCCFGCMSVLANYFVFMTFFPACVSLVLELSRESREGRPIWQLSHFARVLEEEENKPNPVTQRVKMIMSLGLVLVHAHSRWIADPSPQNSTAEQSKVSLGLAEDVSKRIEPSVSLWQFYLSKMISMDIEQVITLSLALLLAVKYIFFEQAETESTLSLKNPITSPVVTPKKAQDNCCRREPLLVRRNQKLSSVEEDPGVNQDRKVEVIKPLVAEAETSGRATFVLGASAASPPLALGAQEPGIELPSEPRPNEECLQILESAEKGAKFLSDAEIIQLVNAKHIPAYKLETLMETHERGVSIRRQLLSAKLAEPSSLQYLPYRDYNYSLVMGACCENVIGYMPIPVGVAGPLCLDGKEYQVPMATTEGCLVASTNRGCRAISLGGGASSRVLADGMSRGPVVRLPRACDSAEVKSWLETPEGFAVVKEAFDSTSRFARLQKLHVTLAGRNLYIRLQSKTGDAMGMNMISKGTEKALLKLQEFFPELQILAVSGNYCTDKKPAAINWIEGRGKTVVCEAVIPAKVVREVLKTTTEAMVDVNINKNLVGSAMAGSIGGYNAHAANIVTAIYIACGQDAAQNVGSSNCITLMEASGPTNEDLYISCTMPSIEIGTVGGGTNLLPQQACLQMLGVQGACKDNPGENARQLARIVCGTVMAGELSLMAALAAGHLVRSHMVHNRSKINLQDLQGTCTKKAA
From the text: The HMG-CoA reductase inhibitory properties of representative compounds of this invention were established by subjecting the compounds to the following standard experimental test procedure adapted from Rodwell et al., Adv. Lipid Res. 14 1, 1976; Endo et al., FEBS Letters 72 323, 1976; and Tanzawa et al., Biochemia et Biophysica Acta 488 97, 1977.
Rat livers obtained from rats fed on a diet containing 3% cholestyramine and maintained on a reverse lighting regimen for three weeks are homogenized and the microsomal fraction is isolated by differential ultra centrifugation to obtain the HMG-CoA reductase enzyme. To a preincubated (five minutes at 37° C.) solution of the compound being tested (as either the lactone and/or dihydroxy sodium carboxylate in amounts from 10^-3 to 10^-6 M) in TEDKS100 pH (Tris® 40 mM; EDTA 1 mM; dithiothreitol 5 mM; KCl 70 mM; sucrose 100 mM) 7.5 buffer or DMSO dissolved in an assay medium containing 20 μl of 2.5M KCl; 20 μl NADPH (reduced nicotinamide adenine dinucleotide phosphate) (7.5 mM); and 40 μl of labeled (RS) HMG-CoA (3-^14 C; […]; 200 μM) is added 10 μl of preincubated (five minutes at 37° C.) microsomal fraction (produced above) to obtain a total volume of 125 μl. After a twenty minute incubation period at 37° C., reaction of the enzyme is terminated by addition of 10 μl of 70% of HClO4. The assay tubes are then centrifuged for two minutes in a Beckman microfuge II.
To 100 μl of the supernatant liquid is added 10 μl of non-radioactivemevalonic acid lactone (0.25M in 8 mM H2 SO4). An aliquot of the sample is eluted with 8 mM H2 SO4 through Bio Rad Aminex HPX-87H (HPLC; Hewlett-Packard Model 1084B) at a flow rate of 1 mL/minute. The effluent is fractionated, Hydrofluor® is added and radioactivity of the [^14 C] mevalonolactone produced by reduction of [^14 C] HMG-CoA determined with a scintillation counter.
The percent inhibition of HMG-CoA reductase activity is obtained by comparison with a control assay devoid of the test compound. The inhibitory concentration (IC50) is calculated for the various test compounds.

[1] = test system: biosynthesis of cholesterol; details: background; cited from earlier work
[2] = Dihydroxycarboxylate form (dihydroxy sodium carboxylate), read-out: Inhibition of HMG-CoA Reductase (IC50, M), Dihydroxycarboxylate
[3] = Lactone form, read-out: Inhibition of HMG-CoA Reductase (IC50, M), Lactone

| Structure (SMILES) | pIC50 (HMG-CoA Reductase; [2]) | pIC50 (HMG-CoA Reductase; [3]) | inhibition of cholesterol biosynthesis, in words [1] |
| --- | --- | --- | --- |
| CC[C@H](C)C(=O)O[C@H]1CCC=C2C=C[C@H](C)[C@H](CC[C@@H]3C[C@@H](O)CC(=O)O3)[C@H]21 [compactin] |  |  | could be inhibited |
| CC[C@H](C)C(=O)O[C@H]1C[C@@H](C)C=C2C=C[C@H](C)[C@H](CC[C@@H]3C[C@@H](O)CC(=O)O3)[C@H]21 [Mevinolin, reference compound] | 8.30 | 6.22 | more effectively |
| CCCC(OC(=O)C(C)(C)CC)c1cc(C)cc(C)c1/C=C/[C@@H]1C[C@@H](O)CC(=O)O1 (relative stereo) [Example 1] | 5.77 | 5.57 |  |

The next lines start with results.

| pIC50 (HMG-CoA Reductase; [2]) | pIC50 (HMG-CoA Reductase; [3]) | Structure (SMILES) | inhibition of cholesterol biosynthesis, in words [1] |
| --- | --- | --- | --- |
| 4.40 | 4.24 | CCC(C)(C)C(=O)OCc1cc(C)cc(C)c1/C=C/[C@@H]1C[C@@H](O)CC(=O)O1 (relative stereo) [Example 4] |  |
| 5.21 | 2.77 | CCC(C)(C)C(=O)OC(c1ccccc1)c1cc(C)cc(C)c1/C=C/[C@@H]1C[C@@H](O)CC(=O)O1 (relative stereo) [Example 3, 2,2-Dimethylbutanoic acid[4α,6β,(E)]-[[3,5-dimethyl-[2-[2-tetrahydro-4-hydroxy-6-oxo-2H-pyran-2-yl]ethenyl]phenyl]phenylmethyl]ester] |  |
| < 4.00 | < 3.00 | CCCCCCCCCC(OC(=O)C(C)(C)CC)c1cc(C)cc(C)c1/C=C/[C@@H]1C[C@@H](O)CC(=O)O1 (relative stereo) [Example 2, 2,2-Dimethylbutanoic acid[4α,6β(E)]-1-[2-[2-(tetrahydro-4-hydroxy-6-oxo-2H-pyran-2-yl)ethenyl]-3,5-dimethylphenyl]decyl ester] |  |
